Measurements: patent publication EP2167056B1, “TRANSDERMAL AND TRANSMUCOSAL DRUG DELIVERY ENHANCERS” (priority 2007, dated 2008)
Where two headings read alike, the source gives them in different places.

What was measured:
[1] = Franz diffusion cell permeation of hydromorphone hydrochloride with delmopinol analogues (Example 2); conditions: 5 % hydromorphone hydrochloride in distilled water with 25 % delmopinol analogue
Experimental: The permeation test was carried out using a Franz diffusion cell with a diffusion area of 1.8 cm^2 as in Example 1. […] Penetration with or without addition of different delmopinol analogues was studied in 5 parallel tests (3 cells per test).

plasma glucose [2] = assay: Nasal absorption of insulin with octapinol hydrochloride, reduction in plasma glucose (Example 6); assay type: in vivo, Sprague Dawley male rats; conditions: for D (%) total reduction in plasma glucose / Maximum reduction in plasma glucose (%): nasal, mean (S.D.), n=6
Experimental: Tests on the enhancement effect of octapinol (M1523), i.e.4-(2-propylpentyl)-1- 2-propylpentyl)-1-piperidine-ethanol, a compound according to Formula (I), for nasal absorption of peptides were carried out on Sprague Dawley male rats with an individual weight of 250-300 g. The rats were fasted for 15-17 hours and anaesthetized prior to the tests. Trachea and arteria carotis were catheterized with a polyethylene tube. The peptide used for the tests was insulin.
The rats were divided into 5 groups and were administered through the nostril via a polyethylene tube with • 1 % octapinol hydrochloride (placebo group) • insulin (Actrapid ® Human from NovoNordisk, Denmark) 5 IE/kg body weight in physiological NaCl (control group) • insulin 2.5 IE/kg body weight with 0.02% octapinol hydrochloride (test group) • insulin 2.5 IE/kg body weight with 0.2% octapinol hydrochloride (test group) • insulin 2.5 IE/kg body weight with 1% octapinol hydrochloride (test group) The pH-value was 3.1 in the test solutions. The administration volume per rat was 25-30 µl.
There were 4 rats in the placebo group, 3 rats in the control group and 6 rats in each of the three test groups.
During the initial tests octapinol hydrochloride was administered nasally together with insulin 5 IE/kg body weight. At an early stage, pronounced reductions in plasma glucose with 1% octapinol hydrochloride were noted.
In the control and test groups 150 µl blood was taken from arteria carotis 0, 10, 20, 30, 40, 50, 60, 120, 180 and 240 minutes respectively after administration.
(§1) The plasma content of glucose was determined through measurement of the amount NADH formed in accordance with the below reactions. [drawing 4] glucose-6-phosphate + NAD^+ -----> 6-phosphogluconate + NADH + H^+
The change in glucose content was set off against time and the area below the graph (AUC) was calculated with the trapezium method.
The total reduction in plasma glucose (D%) and the maximal reduction in plasma glucose after nasal administration of insulin with octapinol hydrochloride is given in Table 6. The total reduction in plasma glucose (D%) was calculated according to Hirai et al (Int. J. Pharmaceut., 9,173-184: 1981). D % = (AUCc −AUCin)/(AUCc) × 100 [formula] • AUCc= area under the graph for intranasally administered insulin 5 IE/kg body weight in physiological Na Cl (control group) • AUCin= area under the graph for intranasally administered insulin in octapinol solution Table 6

plasma glucose [3] = assay: Intravenous administration of octapinol hydrochloride + insulin, reduction in plasma glucose; assay type: in vivo, Sprague Dawley male rats; conditions: 1% octapinol hydrochloride + 0.2 IE insulin/kg intravenously, after 20 minutes
Experimental: A reduction in plasma glucose of about 40 % was observed after 20 minutes.
as §1

[4] = Franz diffusion cell permeation of 3H-labeled TRH (Example 5); assay type: in vitro ADME, human
Experimental: A human full-skin sample was positioned in the cell with a 0.05 M phosphate buffer solution (pH 6.0) as receiving phase on the "receptor" side of the skin. 180 µl of 5 % thyroid-releasing hormone (TRH) in dist. water with and without the addition of 25% delmopinol hydrochloride was used on the "donor" side of the skin. The TRH was ^3H-labeled. Penetration with and without addition of delmopinol hydrochloride was studied in 2 parallel tests (4 cells per test).
Radioactivity in the receiving phase was read at different time intervals over a one week period.

[5] = Experimental: The permeation test was carried out using a Franz diffusion cell with a diffusion area of 1.8 cm^2 as in Example 1. […] 180 µl of 1 % nicotinic acid in distilled water with and without the addition of 25% delmopinol hydrochloride was used on the "donor" side of the skin. The nicotinic acid was ^14C-labeled. Penetration with and without addition of delmopinol hydrochloride was studied in 2 parallel tests (3 cells per test).
Radioactivity in the receiving" phase was read at different time intervals over a one week period. […]

Remark: listed apart in the source
[6] = assay type: in vitro ADME, human
Experimental: 180 µl of 1 % mannitol in distilled water with and without the addition of 1, 5, 10 and 25 % delmopinol hydrochloride respectively was used on the "donor" side of the skin. The mannitol was ^3H-labeled.
A very pronounced effect of the penetration enhancer was seen, but only little if any difference between the concentrations 5, 10 and 25 %, as shown in Table 4.

[7] = insulin 2.5 IE/kg with 0.02 % octapinol hydrochloride
[8] = insulin 2.5 IE/kg with 0.2 % octapinol hydrochloride
[9] = insulin 2.5 IE/kg with 1 % octapinol hydrochloride

CCCC(CCC)CCCC1COCC[N+]1(C)CCO.[Cl-] (stereo not shown) [M 1713, 4-(2-hydroxyethyl)-4-methyl-3-(4-propylheptyl)-morpholinium chloride]
Flux (of hydromorphone hydrochloride) [1]: 4.8 µg/h/cm^2

CCCC(CCC)CC1CCN(CCO)CC1 [M 1523 (octapinol)]
Flux (of hydromorphone hydrochloride) [1]: 13 µg/h/cm^2 | change in plasma glucose level (plasma glucose [2]; 1% octapinol hydrochloride alone, nasally, four rats): No significant change | reductions in plasma glucose, of the initial plasma glucose value (plasma glucose [2]; initial tests: nasal, insulin 5 IE/kg with 1% octapinol hydrochloride): 85 - 90% | D (%) total reduction in plasma glucose (plasma glucose [2]; [7]): 3.6 (3.2) % | Maximum reduction in plasma glucose (%) (plasma glucose [2]; [7]): 3.5 (2.9) % | D (%) total reduction in plasma glucose (plasma glucose [2]; [8]): 9.5 (5.3) % | Maximum reduction in plasma glucose (%) (plasma glucose [2]; [8]): 6.5 (3.5) % | D (%) total reduction in plasma glucose (plasma glucose [2]; [9]): 23.8 (5.8) % | Maximum reduction in plasma glucose (%) (plasma glucose [2]; [9]): 39.1 (11.3) % | reduction in plasma glucose (plasma glucose [3]): about 40%

thyroid-releasing hormone (TRH) [reference compound]
Flux (steady state flux of TRH) ([4]; 5 % TRH in dist. water without enhancer): 4 ng/h/cm^2

CCCC(CCC)CCCC1COCCN1CCO (stereo not shown) [delmopinol]
Flux (steady state flux of nicotinic acid) ([5]; pH 7.4): 1.5 µg/h/cm^2 | Flux (steady state flux of TRH) ([4]; pH 6): 34 ng/h/cm^2 | steady state flux of morphine sulphate (10 % morphine sulphate in distilled water with 25% delmopinol hydrochloride): about 26 µg/h/cm^2 | factor by which permeation of hydromorphone hydrochloride is increased (in the presence of 25 % delmopinol versus without): about 290

O=C(O)c1cccnc1 [nicotinic acid, reference compound]
Flux (steady state flux of nicotinic acid) [5]: 0.15 µg/h/cm^2

CCCCCCCCCCC1CN(CCCO)CCO1 (stereo not shown) [M 1676]
Flux (of hydromorphone hydrochloride) [1]: 19 µg/h/cm^2

OC[C@@H](O)[C@@H](O)[C@H](O)[C@H](O)CO [mannitol, reference compound]
Flux (of mannitol) [6]: 6.6 µg/h/cm^2
